Marks after values point to notes of the source that are not given here.
What was measured:
OCT1 (SLC22A1) = target: T1, OCT1 (SLC22A1) (Homo sapiens, UniProt O15245); test: Cellular uptake into OCT1-overexpressing HEK293 cells vs EV control cells (HPLC-MS/MS); conditions: for uptake ratio OCT1 (transporter-overexpressing cells over EV control cells): mean (±SD, N): 2 min, HEK293
T1 sequence (O15245 1-554): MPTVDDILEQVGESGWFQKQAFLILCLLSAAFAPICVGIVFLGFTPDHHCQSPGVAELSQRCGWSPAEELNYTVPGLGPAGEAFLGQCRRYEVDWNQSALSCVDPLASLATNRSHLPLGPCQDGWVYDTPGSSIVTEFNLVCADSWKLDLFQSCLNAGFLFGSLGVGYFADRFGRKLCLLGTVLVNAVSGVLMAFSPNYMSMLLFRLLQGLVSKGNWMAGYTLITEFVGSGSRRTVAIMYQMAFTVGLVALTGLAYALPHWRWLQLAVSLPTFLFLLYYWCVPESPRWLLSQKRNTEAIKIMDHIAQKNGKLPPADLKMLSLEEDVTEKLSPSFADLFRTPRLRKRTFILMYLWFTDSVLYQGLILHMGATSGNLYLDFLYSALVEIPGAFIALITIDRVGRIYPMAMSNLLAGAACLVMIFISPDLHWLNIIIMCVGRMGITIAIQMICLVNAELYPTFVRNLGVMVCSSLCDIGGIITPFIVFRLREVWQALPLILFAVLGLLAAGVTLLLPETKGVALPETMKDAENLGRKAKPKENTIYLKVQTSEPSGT

MATE2-K (SLC47A2) = MATE2-K (SLC47A2) (Homo sapiens, UniProt Q86VL8); test: Cellular uptake into MATE2-K-overexpressing HEK293 cells vs EV control cells (HPLC-MS/MS); conditions: for uptake ratio MATE2K (transporter-overexpressing cells over EV control cells): mean (±SD, N): 2.5 μM substrate, 1 min, 30 mM NH4Cl preincubation, HEK293
OCT3 (SLC22A3) = target: T2, OCT3 (SLC22A3) (Homo sapiens, UniProt O75751); test: Cellular uptake into OCT3-overexpressing HEK293 cells vs EV control cells (HPLC-MS/MS); conditions: for uptake ratio OCT3 (transporter-overexpressing cells over EV control cells): mean (±SD, N): 2 min, HEK293
T2 sequence (O75751 1-556): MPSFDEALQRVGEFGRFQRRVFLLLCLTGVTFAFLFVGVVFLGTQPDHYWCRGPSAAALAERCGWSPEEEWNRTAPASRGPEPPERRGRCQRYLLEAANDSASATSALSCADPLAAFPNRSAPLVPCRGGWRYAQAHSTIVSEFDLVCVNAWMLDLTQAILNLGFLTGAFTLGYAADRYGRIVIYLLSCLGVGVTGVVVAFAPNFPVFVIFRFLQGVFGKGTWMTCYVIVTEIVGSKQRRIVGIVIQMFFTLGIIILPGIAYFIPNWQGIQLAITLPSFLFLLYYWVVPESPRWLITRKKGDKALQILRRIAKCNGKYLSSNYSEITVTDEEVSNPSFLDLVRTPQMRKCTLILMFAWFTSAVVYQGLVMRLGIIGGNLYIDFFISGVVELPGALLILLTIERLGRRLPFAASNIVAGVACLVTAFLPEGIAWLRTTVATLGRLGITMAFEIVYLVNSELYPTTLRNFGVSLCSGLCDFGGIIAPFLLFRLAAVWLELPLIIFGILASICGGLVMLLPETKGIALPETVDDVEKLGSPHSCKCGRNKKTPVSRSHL

MATE1 (SLC47A1) = target: T3, MATE1 (SLC47A1) (Homo sapiens, UniProt Q96FL8); test: Cellular uptake into MATE1-overexpressing HEK293 cells vs EV control cells (HPLC-MS/MS); conditions: for uptake ratio MATE1 (transporter-overexpressing cells over EV control cells): mean (±SD, N): 2.5 μM substrate, 1 min, 30 mM NH4Cl preincubation, HEK293
T3 sequence (Q96FL8 1-570): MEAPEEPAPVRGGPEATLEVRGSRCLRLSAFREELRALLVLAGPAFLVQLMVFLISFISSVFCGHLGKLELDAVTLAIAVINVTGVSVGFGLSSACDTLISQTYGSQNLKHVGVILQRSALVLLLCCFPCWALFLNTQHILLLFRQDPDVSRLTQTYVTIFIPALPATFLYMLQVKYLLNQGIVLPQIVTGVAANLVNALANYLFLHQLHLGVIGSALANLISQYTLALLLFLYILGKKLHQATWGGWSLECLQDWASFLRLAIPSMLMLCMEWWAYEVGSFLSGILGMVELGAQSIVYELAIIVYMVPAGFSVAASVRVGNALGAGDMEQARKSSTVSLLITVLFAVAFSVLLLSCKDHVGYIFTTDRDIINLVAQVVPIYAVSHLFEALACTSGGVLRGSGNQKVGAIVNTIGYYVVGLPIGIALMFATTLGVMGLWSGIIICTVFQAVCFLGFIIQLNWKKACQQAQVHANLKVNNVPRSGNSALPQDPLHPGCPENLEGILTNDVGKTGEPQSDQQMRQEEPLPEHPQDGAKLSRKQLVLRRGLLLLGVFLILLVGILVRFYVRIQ

OCT2 (SLC22A2) = target: T4, OCT2 (SLC22A2) (Homo sapiens, UniProt O15244); test: Cellular uptake into OCT2-overexpressing HEK293 cells vs EV control cells (HPLC-MS/MS); conditions: for uptake ratio OCT2 (transporter-overexpressing cells over EV control cells): mean (±SD, N): 2 min, HEK293; for K m (±SEM) / v max (±SEM): OCT2, net uptake, Michaelis–Menten
T4 sequence (O15244 1-555): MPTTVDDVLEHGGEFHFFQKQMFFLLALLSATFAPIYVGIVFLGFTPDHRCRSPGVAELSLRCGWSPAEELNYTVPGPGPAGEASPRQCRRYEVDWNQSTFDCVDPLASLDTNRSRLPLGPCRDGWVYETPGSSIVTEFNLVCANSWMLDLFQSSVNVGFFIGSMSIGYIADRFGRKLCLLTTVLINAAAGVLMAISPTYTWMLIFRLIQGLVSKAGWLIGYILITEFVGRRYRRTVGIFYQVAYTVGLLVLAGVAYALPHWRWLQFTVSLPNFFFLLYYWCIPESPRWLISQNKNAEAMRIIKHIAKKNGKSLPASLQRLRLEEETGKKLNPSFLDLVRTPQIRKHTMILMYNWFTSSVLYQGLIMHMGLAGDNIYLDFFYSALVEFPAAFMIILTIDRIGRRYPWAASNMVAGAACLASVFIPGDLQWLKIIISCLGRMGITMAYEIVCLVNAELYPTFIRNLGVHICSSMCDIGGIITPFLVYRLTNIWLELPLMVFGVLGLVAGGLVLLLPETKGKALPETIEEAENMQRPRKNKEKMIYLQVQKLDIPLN

[1] = OCT1, net uptake, Michaelis–Menten
[2] = MATE1, net uptake, Michaelis–Menten

Chain of MATE2-K (SLC47A2) (Q86VL8 1-566 isoform Q86VL8-3): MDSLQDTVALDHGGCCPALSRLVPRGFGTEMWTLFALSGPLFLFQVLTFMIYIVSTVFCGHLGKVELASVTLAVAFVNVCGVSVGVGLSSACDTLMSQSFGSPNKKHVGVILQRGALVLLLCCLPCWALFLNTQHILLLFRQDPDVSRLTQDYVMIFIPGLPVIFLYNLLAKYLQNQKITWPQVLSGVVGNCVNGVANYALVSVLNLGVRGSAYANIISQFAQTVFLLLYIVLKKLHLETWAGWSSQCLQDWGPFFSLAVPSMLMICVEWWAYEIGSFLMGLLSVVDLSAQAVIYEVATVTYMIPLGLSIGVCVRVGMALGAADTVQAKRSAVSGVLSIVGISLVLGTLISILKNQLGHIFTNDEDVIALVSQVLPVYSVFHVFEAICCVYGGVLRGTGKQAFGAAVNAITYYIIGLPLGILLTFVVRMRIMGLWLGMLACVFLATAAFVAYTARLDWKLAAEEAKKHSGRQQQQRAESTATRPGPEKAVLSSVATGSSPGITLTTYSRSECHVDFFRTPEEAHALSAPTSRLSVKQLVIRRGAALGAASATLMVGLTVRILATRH

Row | SMILES | uptake ratio OCT1 (transporter-overexpressing cells over EV control cells): mean (±SD, N) (OCT1 (SLC22A1); 2.5 μM substrate (§)) | uptake ratio MATE2K (transporter-overexpressing cells over EV control cells): mean (±SD, N) (MATE2-K (SLC47A2)) | uptake ratio OCT3 (transporter-overexpressing cells over EV control cells): mean (±SD, N) (OCT3 (SLC22A3); 2.5 μM substrate (§)) | uptake ratio MATE1 (transporter-overexpressing cells over EV control cells): mean (±SD, N) (MATE1 (SLC47A1)) | uptake ratio OCT2 (transporter-overexpressing cells over EV control cells): mean (±SD, N) (OCT2 (SLC22A2); 2.5 μM substrate (§)) | v max (±SEM) (OCT2 (SLC22A2)) | uptake ratio OCT1 (transporter-overexpressing cells over EV control cells): mean (±SD, N) (OCT1 (SLC22A1); 10 μM substrate) | uptake ratio OCT3 (transporter-overexpressing cells over EV control cells): mean (±SD, N) (OCT3 (SLC22A3); 10 μM substrate) | uptake ratio OCT2 (transporter-overexpressing cells over EV control cells): mean (±SD, N) (OCT2 (SLC22A2); 10 μM substrate) | also measured
1 | CC[C@H](C)[C@H](N)CO [(S)-(+)-isoleucinol] | 1.0 (0.1, 4) | 1.0 (0.1, 3) | 0.9 (0.1, 4) | 1.1 (0.2, 3) | 7.6 (1.5, 4) ^b | 1303 (±287) pmol/mg protein/min | – | – | – | K m (±SEM) (OCT2 (SLC22A2)): 116 (±59) μM; K m (±SEM) (OCT2 (SLC22A2); listed as isoleucinol): 116 µM
2 | CCCCCN [amylamine] | – | 0.8 (0.3, 3) | – | 0.5 (0.2, 3) ^a | – | – | 1.2 (0.5, 4) | 0.9 (0.3, 4) | 6.7 (3.2, 4) ^a | –
3 | OCCNCCO [diethanolamine] | – | – | – | – | – | – | – | – | – | substrate activity at OCT1 (in words) (OCT1 (SLC22A1)): did not show any substrate activity; substrate activity at MATE2-K (in words) (MATE2-K (SLC47A2)): did not show any substrate activity; substrate activity at OCT3 (in words) (OCT3 (SLC22A3); uptake ratio ≥2 = notable transport): did not show any substrate activity; substrate activity at MATE1 (in words) (MATE1 (SLC47A1)): did not show any substrate activity; substrate activity at OCT2 (in words) (OCT2 (SLC22A2)): did not show any substrate activity
4 | NCCO [ethanolamine^13C2, ethanolamine-^13C2] | – | 1.2 (0.4, 4) | – | 1.2 (0.4, 4) | – | – | 0.6 (0.3, 4) | 1.4 (0.5, 4) | 0.4 (0.2, 4) ^b | lower uptake in OCT1-transfected cells compared to EV control cells (OCT1 (SLC22A1); 10 μM): 38%; uptake in OCT1-overexpressing cells as part of the uptake observed in EV control cells (OCT1 (SLC22A1); discussion): approximately one-third; less uptake in OCT2-transfected cells compared to EV control cells (OCT2 (SLC22A2); 10 μM, p = 0.009): 64%; uptake in OCT2-overexpressing cells as part of the uptake observed in EV control cells (OCT2 (SLC22A2); discussion): two-thirds
5 | CC(N)CCCC(C)(C)O (stereo not drawn) [heptaminol] | 11.3 (4.6, 3) | 1.0 (0.2, 3) | 1.1 (0.29, 4) | 6.6 (1.3, 3) ^a | 8.7 (5.0, 3) | 9730 (±1210) pmol/mg protein/min | – | – | – | K m (±SEM) (OCT1 (SLC22A1); [1]): 241 (±68) μM; v max (±SEM) (OCT1 (SLC22A1); [1]): 1480 (±174) pmol/mg protein/min; K m (±SEM) (MATE1 (SLC47A1); [2]): 154 (±18) μM; v max (±SEM) (MATE1 (SLC47A1); [2]): 8061 (±283) pmol/mg protein/min; CLint of MATE1 higher than that of OCT1 (MATE1 (SLC47A1); MATE1 vs OCT1): 6.0 fold; CLint of MATE1 higher than that of OCT2 (MATE1 (SLC47A1); MATE1 vs OCT2): 3.7 fold; K m (±SEM) (OCT2 (SLC22A2)): 1089 (±213) μM
6 | CCCCCCCN [heptylamine] | – | 1.4 (0.3, 4) | – | 1.0 (0.3, 4) | – | – | 2.5 (1.9, 6) | 1.85 (1.17, 6) | 4.2 (3.1, 6) ^a | –
7 | CCCCCCN [hexylamine] | – | 1.2 (0.6, 5) | – | 0.8 (0.2, 4) | – | – | 1.8 (1.4, 5) | 0.6 (0.2, 4) ^a | 1.6 (0.4, 4) | –
8 | CC(C)CN [isobutylamine] | – | 1.2 (0.3, 4) | – | 0.9 (0.2, 4) | – | – | 1.1 (0.2, 4) | 0.7 (0.2, 4) ^a | 3.4 (1.2, 4) ^a | –
9 | CCC(C)(C)N [tert-amylamine] | 1.0 (0.3, 3) | 1.0 (0.1, 3) | 0.8 (0.1, 3) | 0.9 (0.2, 3) | 4.7 (2.1, 3) | – | – | – | – | –
10 | CCN(CC)CC [triethylamine] | – | 1.1 (0.2, 3) | – | 0.8 (0.2, 3) | – | 1053 (±206) pmol/mg protein/min | 1.2 (0.1, 4) | 0.8 (0.3, 4) | 5.0 (1.3, 4) ^b | –
